Assay results reported in patent publication US8841310B2, “Combinations of a pyrimidine containing NNRTI with RT inhibitors” (Janssen R & D Ireland, priority 2003, dated 2014).
Like-named read-outs stand apart in the source and are kept apart here.

Columns and labels:
[1] = test system: monotropic HIV strain Ba-L; assay: MO-DC/CD4(+) T cell co-culture model of sexual HIV transmission; assay type: cell-based; details: in words
From the text: Immature monocyte derived dendritic cells (immMO-DC) represent a good model for interstitial dendritic cells, which are early targets during sexual HIV transmission and important initiators of the immune response. These immMO-DC were used in “in vitro” models to test the prevention of HIV infection via sexual intercourse or related intimate contact between partners.
For instance, in one model, monocyte-derived dendritic cells (MO-DC) were infected for 2-hours with the monotropic HIV strain Ba-L at a multiplicity of infection (MOI) of 10^−3. After infection, cells were washed 6 times and resuspended in 10% BCS at 400.000 cells/ml. Autologous CD4(+) T cells were purified out of the lymphocyte fraction of the same elutration as the MO-DC and used at a concentration of 2×10^6 cells/ml ((ratio MO-DC/CD4(+) T: 1/5).
A serial dilution of a compound of formula (I) (test compound) was added to the MO-DC/CD4(+) T cell co-cultures. Each experiment was done in 96-well plates, in which each cup contained 50 μl of MO-DC, 50 μl of CD4(+) T cells and 100 μl of test compound. Half of the culture medium, with test compound, was refreshed twice weekly. Supernatants were analysed in ELISA after 14 days of culture. To determine antiviral activity, the test compound concentration able to suppress 50% of the viral replication at the end of the primary cultures (EC50) was measured.

HIV-1 wild type = assay: MT-4 cell-based antiviral assay (viral cytopathicity, tetrazolium); details: Human immunodeficiency virus 1, MT4
Protocol: (§1) Compound E-TMC278 was tested in a cell-based assay, using natural host cells of HIV. MT-4 cells (a cell line of human T cells) were infected with HIV-1 (wild type or mutants) and exposed to different concentrations of antiviral compound in the presence of 10% fetal calf serum. Cytotoxicity was determined in parallel with the antiviral activity so that the selectivity of the antiviral effect could be assessed. Active compounds have to penetrate the cell membrane in order to interfere with replication steps inside the cell.
(§2) After four days of incubation at 37° C., the viability of the HIV and mock-infected cells was assessed by an automated tetrazolium-based calorimetric assay. This method enabled the calculation of both the 50% inhibitory concentration for inhibition of viral cytopathicity (IC50), the IC90, and the 50% cytotoxic concentration (CC50). The ratio CC50/IC50, also called the selectivity index, is an indication of the specificity of the antiviral effect. Tested HIV strains included: Wild type (wt) HIV-1; a panel of single and double mutants, obtained by site-directed mutagenesis (SDM), and a panel of clinical isolates, selected for resistance against NNRTIs.

HIV-1 mutant 100I = assay: MT-4 cell-based antiviral assay, SDM mutant
Protocol: as §1, §2
(§3) A limited panel of HIV-1 mutants was constructed using site-directed mutagenesis (SDM) and homologous recombination techniques. […] Nevirapine (NVP) and efavirenz (EFV) were included as controls.

[2] = test system: HIV-1 double mutant 227L + 106A; assay: MT-4 cell-based antiviral assay, SDM mutant
Protocol: as §1, §2, §3

[3] = test system: HIV-1 double mutant 100I + 103N; assay: MT-4 cell-based antiviral assay, SDM mutant
Protocol: as §1, §2, §3

HIV-1 mutant 227C = assay: MT-4 cell-based antiviral assay, SDM mutant
Protocol: as §1, §2, §3

HIV-1 mutant 181C = assay: MT-4 cell-based antiviral assay, SDM mutant
Protocol: as §1, §2, §3

HIV-1 mutant 188L = assay: MT-4 cell-based antiviral assay, SDM mutant
Protocol: as §1, §2, §3

HIV-1 mutant 103N = assay: MT-4 cell-based antiviral assay, SDM mutant
Protocol: as §1, §2, §3

[4] = test system: HIV-1 double mutant 103N + 181C; assay: MT-4 cell-based antiviral assay, SDM mutant; details: Human immunodeficiency virus 1, MT4, read-out: IC50 value
Protocol: as §1, §2, §3

HIV-1 RT = target: T1, HIV-1 RT (Human immunodeficiency virus type 1 group M subtype B, UniProt P04585); details: read-out: inhibition constant; cited from earlier work
T1 construct: The primary target of tenofovir diphosphate is reverse transcriptase (RT)

HIV-1 [5] = details: human PBMCs and MT-2 cells, increasing drug concentrations; cited from earlier work
HIV-1 mutant 188C = assay: MT-4 cell-based antiviral assay, SDM mutant; details: Human immunodeficiency virus 1, MT4
Protocol: as §1, §2, §3

HIV-1 mutant 101E = assay: MT-4 cell-based antiviral assay, SDM mutant; details: Human immunodeficiency virus 1, MT4
Protocol: as §1, §2, §3

HIV-1 mutant 179D = assay: MT-4 cell-based antiviral assay, SDM mutant; details: Human immunodeficiency virus 1, MT4
Protocol: as §1, §2, §3

HIV-1 mutant 190S = assay: MT-4 cell-based antiviral assay, SDM mutant; details: Human immunodeficiency virus 1, MT4
Protocol: as §1, §2, §3

HIV-1 mutant 179E = assay: MT-4 cell-based antiviral assay, SDM mutant; details: Human immunodeficiency virus 1, MT4
Protocol: as §1, §2, §3

HIV-1 mutant 188H = assay: MT-4 cell-based antiviral assay, SDM mutant; details: Human immunodeficiency virus 1, MT4
Protocol: as §1, §2, §3

HIV-1 mutant 138K = assay: MT-4 cell-based antiviral assay, SDM mutant; details: Human immunodeficiency virus 1, MT4
Protocol: as §1, §2, §3

[6] = test system: HIV-1 double mutant 101E + 103N; assay: MT-4 cell-based antiviral assay, SDM mutant; details: Human immunodeficiency virus 1, MT4, 96 h
Protocol: as §1, §2, §3

[7] = test system: HIV-1 double mutant 103N + 181I; assay: MT-4 cell-based antiviral assay, SDM mutant; details: Human immunodeficiency virus 1, MT4, 96 h
Protocol: as §1, §2, §3

HIV-1 mutant 236L = assay: MT-4 cell-based antiviral assay, SDM mutant; details: Human immunodeficiency virus 1, MT4
Protocol: as §1, §2, §3

HIV-1 mutant 106A = assay: MT-4 cell-based antiviral assay, SDM mutant; details: Human immunodeficiency virus 1, MT4
Protocol: as §1, §2, §3

HIV-1 mutant 190A = assay: MT-4 cell-based antiviral assay, SDM mutant; details: Human immunodeficiency virus 1, MT4
Protocol: as §1, §2, §3

HIV-1 mutant 234I = assay: MT-4 cell-based antiviral assay, SDM mutant; details: Human immunodeficiency virus 1, MT4
Protocol: as §1, §2, §3

HIV-1 mutant 225H = assay: MT-4 cell-based antiviral assay, SDM mutant; details: Human immunodeficiency virus 1, MT4
Protocol: as §1, §2, §3

HIV-1 mutant 227L = assay: MT-4 cell-based antiviral assay, SDM mutant; details: Human immunodeficiency virus 1, MT4
Protocol: as §1, §2, §3

wild type HIV-1 = assay: Development of resistance in vitro, MT4 cells, high multiplicity of infection; assay type: cell-based; details: wild type HIV-1, >1 infectious virus per cell, all tested concentrations, total 30 days
From the text: Emerging virus was collected for pheno- and genotyping. Cultures without evidence of virus replication were further sub-cultivated in the presence of the same concentration of inhibitor for a total duration of 30 days (10 passages).

HIV-1 [8] = details: cited from earlier work
HIV-1 mutant 108I = assay: MT-4 cell-based antiviral assay, SDM mutant; details: Human immunodeficiency virus 1, MT4
Protocol: as §1, §2, §3

[9] = test system: clinical HIV strains expressing the M184V mutation; details: cited from earlier work
[10] = test system: simian immunodeficiency virus; details: SIV after 5 to 15 weeks treatment, 30 mg/kg, newborn rhesus macaques; cited from earlier work
[11] = test system: recombinant virus expressing the K65R mutation; details: in vitro; cited from earlier work
[12] = test system: wild-type or zidovudine-resistant HIV-1 strains; details: MT-4 cells; cited from earlier work
HIV = details: short course of monotherapy; cited from earlier work
HIV-1 M184V = details: cited from earlier work
[13] = test system: laboratory strain of HIV with combination of 65R, 74V, 115F and/or 184V; details: combination of resistance mutations; cited from earlier work
[14] = Human immunodeficiency virus 1, MT4, read-out: IC50 value
[15] = wild type, MT-4 cells, 10% fetal calf serum, read-out: IC50
[16] = Human immunodeficiency virus 1, MT4
[17] = Human immunodeficiency virus 1, MT4, 96 h
[18] = Human immunodeficiency virus 1, MT4, 96 h, 100I + 103N, MT-4 cells

SMILES: Cc1cc(C=CC#N)cc(C)c1Nc1ccnc(Nc2ccc(C#N)cc2)n1 [TMC278, 4-[[4-[[4-(2-cyanoethenyl)-2,6-dimethylphenyl]-amino]-2-pyrimidinyl]-amino]-benzonitrile]
- inhibition of HIV replication in MO-DC/CD4(+) T cell co-cultures [1]: potently inhibits HIV replication

SMILES: Cc1cc(/C=C\C#N)cc(C)c1Nc1ccnc(Nc2ccc(C#N)cc2)n1 [Z-TMC278, (Z)-4-[[4-[[4-(2-cyanoethenyl)-2,6-dimethylphenyl]-amino]-2-pyrimidinyl]-amino]-benzonitrile]
- IC50 (HIV-1 wild type; Table 1, HIV RT mutation: Wild-type, read-out: IC50 value): 0.0006 µM
- IC50 (HIV-1 mutant 100I; [14]): 0.0063 µM
- IC50 [2, 14]: 0.004 µM
- IC50 ([3]; Human immunodeficiency virus 1, MT4, read-out: IC50 value, Table 1, HIV RT mutation: 100I + 103N): 0.79 µM
- IC50 (HIV-1 mutant 227C; [14]): 0.004 µM
- IC50 (HIV-1 mutant 181C; [14]): 0.005 µM
- IC50 (HIV-1 mutant 188L; [14]): 0.032 µM
- IC50 (HIV-1 mutant 103N; [14]): 0.0016 µM
- IC50 [4]: 0.04 µM

SMILES: CC(Cn1cnc2c(N)ncnc21)OCP(=O)(O)OP(=O)(O)OP(=O)(O)O (stereo in doubt) [Tenofovir diphosphate]
- Ki (HIV-1 RT): ~0.9 µM

SMILES: Nc1nc(=O)n([C@@H]2CS[C@H](CO)O2)cc1F (racemic) [FTC, (±)-cis-4-amino-5-fluoro-1-[2-(hydroxymethyl)-1,3-oxathiolan-5-yl]-2(1H)-pyrimidinone]
- cycles of infection until highly drug-resistant variants dominated (HIV-1 [5]): two or more

SMILES: Cc1ccnc2c1NC(=O)c1cccnc1N2C1CC1 [NVP, 11-cyclopropyl-5,11-dihydro-4-methyl-6H-dipyrido-[3,2-b: 2′,3′-e][1,4]diazepin-6-one]
- IC50 (HIV-1 wild type; [15]): 0.081 µM
- IC50 (HIV-1 mutant 188C): 3.76 µM
- IC50 (HIV-1 mutant 101E): 0.547 µM
- IC50 (HIV-1 mutant 179D): 0.161 µM
- IC50 (HIV-1 mutant 190S): 10 µM
- IC50 (HIV-1 mutant 179E): 0.158 µM
- IC50 (HIV-1 mutant 188H): 0.241 µM
- IC50 (HIV-1 mutant 138K): 0.064 µM
- IC50 (HIV-1 mutant 100I; [16]): 0.597 µM
- IC50 [6]: 7.03 µM
- IC50 [2, 17]: 10 µM
- IC50 [7]: 10 µM
- IC50 (HIV-1 mutant 236L): 0.041 µM
- IC50 (HIV-1 mutant 106A): 2.98 µM
- IC50 (HIV-1 mutant 190A): 4.1 µM
- IC50 [3, 18]: 10 µM
- IC50 (HIV-1 mutant 227C; [16]): 1.82 µM
- IC50 (HIV-1 mutant 181C; [16]): ≥ 10 µM
- IC50 (HIV-1 mutant 188L; [16]): 10 µM
- IC50 (HIV-1 mutant 234I): 0.045 µM
- IC50 (HIV-1 mutant 225H): 0.171 µM
- IC50 (HIV-1 mutant 103N; [16]): 2.88 µM
- IC50 (HIV-1 mutant 227L): 0.078 µM
- time to emergence of resistant virus (wild type HIV-1): 3 to 6 days

SMILES: Nc1nc(=O)n([C@@H]2CS[C@H](CO)O2)cc1F (racemic) [(−)-beta-enantiomer of FTC, Emtricitabine]
- in vitro anti-HIV-1 activity relative to the (+)-beta-enantiomer (HIV-1 [8]): 20 fold

SMILES: O=C1Nc2ccc(Cl)cc2[C@@](C#CC2CC2)(C(F)(F)F)O1 [EFV, efavirenz]
- IC50 (HIV-1 wild type; [15]): 0.0014 µM
- IC50 (HIV-1 mutant 188C): 0.005 µM
- IC50 (HIV-1 mutant 101E): 0.005 µM
- IC50 (HIV-1 mutant 179D): 0.006 µM
- IC50 (HIV-1 mutant 190S): 0.275 µM
- IC50 (HIV-1 mutant 179E): 0.005 µM
- IC50 (HIV-1 mutant 188H): 0.009 µM
- IC50 (HIV-1 mutant 138K): 0.0013 µM
- IC50 (HIV-1 mutant 100I; [16]): 0.035 µM
- IC50 [6]: 0.084 µM
- IC50 [2, 17]: 0.008 µM
- IC50 [7]: 0.037 µM
- IC50 (HIV-1 mutant 108I): 0.002 µM
- IC50 (HIV-1 mutant 236L): 0.001 µM
- IC50 (HIV-1 mutant 106A): 0.023 µM
- IC50 (HIV-1 mutant 190A): 0.008 µM
- IC50 [3, 18]: 10 µM
- IC50 (HIV-1 mutant 227C; [16]): 0.036 µM
- IC50 (HIV-1 mutant 181C; [16]): 0.002 µM
- IC50 (HIV-1 mutant 188L; [16]): 0.078 µM
- IC50 (HIV-1 mutant 225H): 0.002 µM
- IC50 (HIV-1 mutant 103N; [16]): 0.028 µM
- IC50 (HIV-1 mutant 227L): 0.0003 µM

SMILES: C[C@H](Cn1cnc2c(N)ncnc21)OCP(=O)(O)O [tenofovir]
- susceptibility in vitro [9]: wild-type or increased susceptibility
- decreased susceptibility [10]: approximately 5 fold
- decreased susceptibility [11]: 3 fold

SMILES: Nc1nc(NC2CC2)c2ncn([C@H]3C=C[C@@H](CO)C3)c2n1 [abacavir]
- passages until significant decrease in susceptibility [12]: eight to ten
- average reduction in viral load (HIV): more than 1.4 log 10 RNA copies/ml
- decrease in HIV-1 susceptibility (HIV-1 M184V): 3 fold
- reduction in susceptibility [13]: 10 fold
